Laboratory results reported in patent US20120329767A1, “Methods and Compositions for Treating Cancer” (priority 2010, published 2012).
Read-outs that look alike come from different tables or passages of the source.

Experiments:
A-172 cells = experiment: MTT test on A172 glioblastoma cells; assay type: cell-based, human; settings: 48 h treatment, A-172 glioblastoma cells, Table 1
Description: Cisplatin was chosen as cytotoxic agent for comparison. As first approach, a MTT test was used to measure the activity of a mitochondrial enzyme which gives an estimation of the number of cells.
The experiments were performed under a vertical laminar flow hood. The cell growth medium was composed of DMEM (Dulbecco's Modified Eagle's Medium), HEPES, 10% FCS (Foetal Calf Serum), 5% PS (Penicillin, Streptomycin) and was stored at +4° C., and PBS (Phosphate Buffer Saline, pH=7.4). […] MTT (4,5-dimethylthiazol-2-diphenyltetrazolium bromide) is a yellow solid produced by Aldrich. It was placed in sterile aqueous solution at a concentration of 5 mg/ml and stored at +4° C. It was diluted to 10% in the cell culture medium when used as staining agent of the living cells.
(§3) When they were sufficiently numerous (70% confluence) they were washed in PBS at ambient temperature then mixed with 1.5 mL of Trypsin-EDTA to detach them from the Petri dish. […] After 48 hours, the medium was replaced by a MTT solution at 37° in the medium, which was placed in the incubator for at least one hour or until violet crystals derived from the complexing of MTT were formed quantitatively at the bottom of each well. […] The optical density of the solutions obtained was read off. […]

HCT-116 cells = experiment: MTT test on HCT116 colon cancer cells; assay type: cell-based, human; settings: MTT method, Table 2
Description: A human glioblastoma line (A172) and a colon cancer line (HCT116) were used to test the cytostatic effects of the compounds according to the invention. Cisplatin was chosen as cytotoxic agent for comparison. As first approach, a MTT test was used to measure the activity of a mitochondrial enzyme which gives an estimation of the number of cells.
The experiments were performed under a vertical laminar flow hood. The cell growth medium was composed of DMEM (Dulbecco's Modified Eagle's Medium), HEPES, 10% FCS (Foetal Calf Serum), 5% PS (Penicillin, Streptomycin) and was stored at +4° C., and PBS (Phosphate Buffer Saline, pH=7.4). […] MTT (4,5-dimethylthiazol-2-diphenyltetrazolium bromide) is a yellow solid produced by Aldrich. […]
as §3
The IC50 values (μM) were determined for each of the lines and compared with the values obtained for a reference ruthenium derived compound.

A2780 = experiment: MTT test on A2780 ovarian cancer line; assay type: cell-based; settings: MTT method
3LL = experiment: MTT test on 3LL lung cancer line; assay type: cell-based; settings: MTT method
U87 = experiment: MTT test on U87 glioblastoma line; assay type: cell-based; settings: MTT method
N2A = experiment: MTT test on N2A neuroblastoma line; assay type: cell-based; settings: MTT method
Fadu = experiment: MTT test on Fadu head & neck cancer line; assay type: cell-based; settings: MTT method
Katto III = experiment: MTT test on Katto III pancreatic cancer line; assay type: cell-based; settings: MTT method, Katto III gastric cancer
HCT116 cells = experiment: Cell cycle profile by FACS after propidium iodide staining; assay type: cell-based, human; settings: HCT116 cells treated 48 h at 1 μM and 5 μM
Description: The effect of compounds 8 and 9 on the cell profile was studied using the FACS technique (Fluorescence Activated Cell Sorter i.e. the association of a flow cytometer and a cell sorter) after staining the cells with propidium iodide to visualize the quantity of cell DNA. These analyses allow visualization of the cell cycle phase at which the cells accumulate subsequent to treatment with the compounds of the invention, and possibly whether cell death by apoptosis has been induced.
In this experiment, the HCT116 cells were treated for 48 h at the indicated doses (1 μM and 5 μM). After a treatment time of 48 h, the cells were washed three times with PBS (phosphate buffer saline) and fixed in 90% ethanol. The cells were then stained with a solution of propidium iodide/RNase. The stained cells (10 000 per sample) were then counted using a FACScan flow cytometer and CellQuest software (Becton Dickinson) to determine the DNA content and the profile of the cell cycle.

CHOP protein = experiment: Expression of the CHOP protein, Western blot; assay type: cell-based, human; settings: A172 tumour cells treated 6 hours at 5 μM and 10 μM, versus reference compound
Description: (§1) To determine via which mechanisms of action compounds 8 and 9 could lead to slowing of cell proliferation or to cell death, the activation of two specific markers, the expression of the CHOP protein and phosphorylation of the histone H2AX on the serine site […] were monitored. The CHOP protein has pro-apoptotic properties (induction of cell death). Phosphorylation of the H2AX histone is a marker of DNA damage which leads to activation of p53, a protein having pro-apoptotic properties or the property of slowing cell proliferation.
(§2) In these experiments, the tumour cells A172 were treated for 6 hours with the compounds at two concentrations (5 μM and 10 μM). After the 6 hour treatment time, the cells were lysed and […] of soluble proteins were separated on 12% polyacrylamide gel. After migration, the proteins were transferred onto nitrocellulose using the Western blot technique. The proteins CHOP and H2AX were then detected using specific primary antibodies, themselves recognized by corresponding secondary antibodies whose peroxidase activity was identified using an ECL kit.

histone H2AX = experiment: Phosphorylation of histone H2AX, Western blot; assay type: cell-based, human; settings: A172 tumour cells treated 6 hours at 5 μM and 10 μM, versus reference compound
Description: as §1, §2

[1] = system: melanoma model F10B16 implanted in Black-6 mice; experiment: Tumour growth in in vivo melanoma model F10B16; settings: F10B16 melanoma in Black-6 mice, twice a week at 7.5 μmol/kg
Description: To determine the anti-cancer potential of these molecules, we analyzed the effects of compound 8 and compound 9 on tumour growth, using the in vivo melanoma model F10B16 implanted in Black-6 mice. […] The chronic treatments (twice a week at 7.5 μmol/kg) in mice having tumours led to a reduction in tumour growth. This reduction in tumour growth (treated tumour volume/non-treated tumour volume: T/C) was of the order of 80% for compound 8 and 60% for compound 9 (see Table 4 and FIGS. 6 and 7).
In these experiments, the […] cells (200 000 cells) were implanted sub-cutaneously in Black-6 mice aged 8 weeks. Groups of 6 mice per condition were formed. The treatments were started when the tumours were palpable with a volume of the order of 100 mm^3.

Black-6 mice = Black-6 mice aged 8 weeks, single dose, intraperitoneal, followed up over 15 days
Description: As comparison, the acute toxicity of the above-described reference compound is given.
In this experiment, the injections were given via intraperitoneal route with groups of 5 animals per dose. The weight and survival of the animals were followed up over 15 days.

Work on CC#[N+][Ru-4]123([c]4c(cc(C(=O)OC)cc4-c4cccc[n+]41)-c1cccc[n+]12)[n+]1cccc2ccc4ccc[n+]3c4c21.F[P-](F)(F)(F)(F)F [Compound (8)] yielded an IC50 (A-172 cells) of 1500 to 1900 nM, an IC50 (HCT-116 cells) of 1000 to 2000 nM and an IC50 (A2780) of 1000 to 2000 nM. The IC50 (3LL) was 1000 to 2000 nM, the IC50 (U87) was 1000 to 2500 nM and the IC50 (N2A) was 1000 to 2000 nM. The IC50 (Fadu) was 1000 to 2000 nM, the IC50 (Katto III) was 1000 to 2000 nM and the “Profile of the cell cycle” value (HCT116 cells) was “induce a halt in the cell cycle at phase G1 or cell death”. For the same molecule, the “Induction of expression of the CHOP protein” value (CHOP protein) was “more efficient”, the “Phosphorylation of the histone H2AX on the serine site 137” value (histone H2AX) was “more efficient” and the “T/C (reduction in tumour growth; treated tumour volume/non-treated tumour volume)” value ([1]; listed as Compound 8) was 81%. The “T/C (reduction in tumour growth; treated tumour volume/non-treated tumour volume)” value ([1]; listed as compound 8) was roughly 80% and the LD50 (Black-6 mice) was 22.5 µmol/kg.
Molecule CC#[N+][Ru-4]123([c]4c(cc(C)cc4-c4cccc[n+]41)-c1cccc[n+]12)[n+]1cccc2ccc4ccc[n+]3c4c21.F[P-](F)(F)(F)(F)F [Compound (9)] has an IC50 (A-172 cells) of 600 to 1000 nM, an IC50 (HCT-116 cells) of 100 to 1000 nM and an IC50 (A2780) of 100 to 1000 nM. It also gave an IC50 (3LL) of 100 to 1000 nM, an IC50 (U87) of 1000 to 2000 nM and an IC50 (N2A) of 100 to 1000 nM. The IC50 (Fadu) was 100 to 1000 nM, the IC50 (Katto III) was 100 to 1000 nM and the “Profile of the cell cycle” value (HCT116 cells) was “induce a halt in the cell cycle at phase G1 or cell death”. For the same molecule, the “Induction of expression of the CHOP protein” value (CHOP protein) was “more efficient”, the “Phosphorylation of the histone H2AX on the serine site 137” value (histone H2AX) was “more efficient” and the “T/C (reduction in tumour growth; treated tumour volume/non-treated tumour volume)” value ([1]; listed as Compound 9) was 58%. For the same molecule, the “T/C (reduction in tumour growth; treated tumour volume/non-treated tumour volume)” value ([1]; listed as compound 9) was roughly 60%, the LD50 (Black-6 mice; listed as Compound 9) was greater than 60 µmol/kg and the LD50 (Black-6 mice; listed as compound 9) was greater than 60 µmol/kg.
